Experimental data from patent US8044198B2, “Sirtuin modulating compounds” (Sirtris Pharmaceuticals, Inc., priority 2005, dated 2011).
pEC50: −log10 of the molar value. Read-outs that look alike come from different tables or passages of the source.

Target: T1, SIRT1 (Homo sapiens, UniProt Q96EB6)
T1 sequence (Q96EB6 1-747): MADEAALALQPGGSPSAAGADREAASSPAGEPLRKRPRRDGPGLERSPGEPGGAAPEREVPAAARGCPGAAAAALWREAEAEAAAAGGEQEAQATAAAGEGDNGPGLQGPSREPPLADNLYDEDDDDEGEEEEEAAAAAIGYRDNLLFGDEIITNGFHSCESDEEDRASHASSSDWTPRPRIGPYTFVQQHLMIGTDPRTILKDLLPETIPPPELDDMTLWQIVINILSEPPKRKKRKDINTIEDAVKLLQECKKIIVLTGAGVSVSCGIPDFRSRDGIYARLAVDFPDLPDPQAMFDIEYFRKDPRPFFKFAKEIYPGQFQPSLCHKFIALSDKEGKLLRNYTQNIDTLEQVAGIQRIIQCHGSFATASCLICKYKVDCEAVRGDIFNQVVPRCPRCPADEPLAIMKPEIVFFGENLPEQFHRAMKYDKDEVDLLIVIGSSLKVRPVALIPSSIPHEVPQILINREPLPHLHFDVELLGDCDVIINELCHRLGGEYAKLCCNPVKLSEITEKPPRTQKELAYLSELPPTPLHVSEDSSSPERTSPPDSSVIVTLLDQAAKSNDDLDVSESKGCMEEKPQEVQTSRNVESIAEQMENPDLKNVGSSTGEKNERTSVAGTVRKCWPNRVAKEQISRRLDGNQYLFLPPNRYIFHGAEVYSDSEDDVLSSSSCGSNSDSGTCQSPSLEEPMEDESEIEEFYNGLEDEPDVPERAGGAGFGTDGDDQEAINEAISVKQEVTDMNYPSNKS
Assay: SIRT1 mass spectrometry (MS) based deacetylation assay; as to FOLD ACT. MS: test concentration or dose not given here
Type: biochemical
Settings: for pEC50: mass spectrometry assay, read-out: ED50 MS ASSAY

[1] = fold activation of SIRT1, mass spectrometry assay
[2] = fold activation of SIRT1 as determined by MS
[3] = SIRT1 fold activation as determined by MS
[4] = Sirt1 activators, fold activation as determined by MS

pEC50 (SIRT1 activation) | FOLD ACT. MS [1] | SMILES | also measured
4.30 to 5.30 | B (B (Fold Activation <250%)) | CN(C)c1ccc(C(=O)Nc2cccc(-c3nc4cnccc4o3)c2)cc1 [Compound 299] | 
4.30 to 5.30 |  | CN(C)c1cccc(C(=O)Nc2cc(C(=O)N3CCNCC3)cc(-c3nc4ncccc4o3)c2)c1 [Compound 138] | FOLD ACT. MS [2]: B (B (Fold Activation <250%))
> 5.30 | B (B (Fold Activation <250%)) | CN(C)c1ccc(C(=O)Nc2ccccc2-c2nc3cnccc3s2)cc1 [Compound 320] | 
4.30 to 5.30 | B (B (Fold Activation <250%)) | COc1cc(C(=O)Nc2cccc(-c3nc4cnccc4o3)c2)cc(OC)c1OC [Compound 298] | 
4.30 to 5.30 | A (A (Fold activation >250%)) | COc1cc(C(=O)Nc2cccc(-c3nc4cnccc4s3)c2)cc(OC)c1OC [Compound 273] | 
4.00 to 4.29 | B (B (Fold Activation <250%)) | CN(C)c1cccc(C(=O)Nc2ccc(-c3nc4ccncc4o3)cc2)c1 [Compound 408] | 
> 5.30 |  | COc1ccc(C(=O)Nc2cccc(-c3nc4ccncc4s3)c2)cc1OC [Compound 114] | FOLD ACT. MS [2]: A (A (Fold activation >250%))
4.30 to 5.30 | B (B (Fold Activation <250%)) | COc1ccc(C(=O)Nc2cccc(-c3nc4cnccc4s3)c2)c(OC)c1OC [Compound 401] | 
4.30 to 5.30 | B (B (Fold Activation <250%)) | CN(C)c1cccc(C(=O)Nc2cccc(-c3nc4cnccc4o3)c2)c1 [Compound 311] | 
> 5.30 | B (B (Fold Activation <250%)) | COc1cc(C(=O)Nc2ccc(-c3nc4ccncc4o3)cc2)cc(OC)c1OC [Compound 341] | 

The remaining lines, values behind:

SMILES | pEC50 (SIRT1 activation) | FOLD ACT. MS [1] | also measured
COc1cc(C(=O)Nc2cccc(-c3nc4cccnc4s3)c2)cc(OC)c1OC [Compound 217] | > 5.30 |  | FOLD ACT. MS [2]: A (A (Fold activation >250%))
COc1ccc(C(=O)Nc2ccccc2-c2nc3ccncc3s2)cc1OC [Compound 162] | > 5.30 |  | FOLD ACT. MS [2]: B (B (Fold Activation <250%))
O=C(Nc1ccccc1-c1cn2c(CN3CCNCC3)csc2n1)c1cccc(OC(F)(F)F)c1 [Compound 698] | > 5.30 |  | FOLD ACT. MS [3]: A (A (Fold activation >250%))
COc1cc(F)cc(C(=O)Nc2ccccc2-c2cn3c(CN4CCNCC4)csc3n2)c1 [Compound 743] | 4.30 to 5.30 |  | FOLD ACT. MS [3]: A (A (Fold activation >250%))
COc1cc(C(=O)Nc2cc(CN(C)C)cc(-c3nc4ccncc4s3)c2)cc(OC)c1OC [Compound 174] | 4.00 to 4.29 |  | FOLD ACT. MS [2]: A (A (Fold activation >250%))
O=C(Nc1ccccc1-c1cn2c(CN3CC(F)(F)C3)csc2n1)c1cnc2ccccc2n1 [Compound 717] | 4.30 to 5.30 |  | FOLD ACT. MS [3]: B (B (Fold Activation <250%))
O=C(O)Cc1csc2nc(-c3ccccc3NC(=O)c3cnc4ccccc4n3)cn12 [Compound 721] | 4.30 to 5.30 |  | FOLD ACT. MS [3]: A (A (Fold activation >250%))
COc1cccc(C(=O)Nc2ccccc2-c2cn3c(CN4CCNCC4)csc3n2)c1 [Compound 738] | 4.30 to 5.30 |  | FOLD ACT. MS [3]: A (A (Fold activation >250%))
COc1cc(C(=O)Nc2ccccc2-n2cccn2)cc(OC)c1OC [Compound 176] | 4.00 to 4.29 |  | FOLD ACT. MS [2]: B (B (Fold Activation <250%))
O=C(Nc1ccccc1-c1nc2cccnc2[nH]1)c1ccccc1 [Compound 533] |  |  | FOLD ACT. MS [4]: B (B (Fold Activation <250%)); pEC50 (Sirt1 activators): > 5.30
COc1cc(C)ccc1C(=O)Nc1ccc(-c2cc3cccnc3o2)cc1 [Compound 187] | 4.30 to 5.30 |  | FOLD ACT. MS [2]: B (B (Fold Activation <250%))
O=C(Nc1ccccc1-c1nc2ccc(CN3CCNCC3)nc2s1)c1ccc2ccccc2n1 [Compound 729] | > 5.30 |  | FOLD ACT. MS [3]: A (A (Fold activation >250%))
S=C(Nc1cccnc1)Nc1cccc(-c2nc3ccncc3s2)c1 [Compound 485] |  |  | pEC50 (Sirt1 activators): 4.30 to 5.30
S=C(Nc1ccc(N2CCOCC2)nc1)Nc1cccc(-c2nc3ccncc3s2)c1 [Compound 484] |  |  | FOLD ACT. MS [4]: B (B (Fold Activation <250%)); pEC50 (Sirt1 activators): 4.30 to 5.30
